Legend:
[1] = test system: P. falciparum 3D7 trophozoites; assay: Metabolomic fingerprint profiling LC-MS; type: cell-based, Plasmodium falciparum; parameters: UDP-D-glucose / ADP-D-glucose: unit not given here
P. falciparum = assay: EC50 listed in S2 Table Metabolomics (used to set the concentration tested); type: cell-based; conditions: Plasmodium falciparum; EC50 used for Factor_XEC50 in metabolomics; read-out: EC50_nM
[2] = metabolite level change after treatment

Work on COc1ccccc1CNC(=O)CCn1c(=O)[nH]c2ccccc2c1=O [MMV665916] yielded an Acetyllysine ([1]; S2 Table Metabolomics, metabolite Acetyllysine) of 0.3638, a N-acetyl-L-ornithine ([1]; S2 Table Metabolomics, metabolite N-acetyl-L-ornithine) of 0.3943 and a N-carbamoyl-L-aspartate ([1]; S2 Table Metabolomics, metabolite N-carbamoyl-L-aspartate) of -0.2097. For the same compound, the NADPH ([1]; S2 Table Metabolomics, metabolite NADPH) was -0.7222, the dAMP ([1]; S2 Table Metabolomics, metabolite dAMP) was 0.5335 and the dCMP ([1]; S2 Table Metabolomics, metabolite dCMP) was -0.1283. It also gave a dTDP ([1]; S2 Table Metabolomics, metabolite dTDP) of 0.2837, a dTMP ([1]; S2 Table Metabolomics, metabolite dTMP) of 0.1911 and a dTTP ([1]; S2 Table Metabolomics, metabolite dTTP) of 0.1028. It also gave a dihydroorotate ([1]; S2 Table Metabolomics, metabolite dihydroorotate) of 0.195, an orotate ([1]; S2 Table Metabolomics, metabolite orotate) of 0.1648 and a DLH ([1]; S2 Table Metabolomics, peptide DLH) of -0.3906. The DLS/SDL/SID ([1]; S2 Table Metabolomics, peptide DLS/SDL/SID) was -0.1223, the PD ([1]; S2 Table Metabolomics, peptide PD) was 0.1255 and the PEE ([1]; S2 Table Metabolomics, peptide PEE) was 0.2968. For the same compound, the PVNF ([1]; S2 Table Metabolomics, peptide PVNF) was -0.3118, the 3-phosphoglycerate ([1]; metabolite 3-phosphoglycerate, S2 Table Metabolomics) was 0.2339 and the ADP-D-glucose ([1]; metabolite ADP-D-glucose, S2 Table Metabolomics) was 0.1724. For the same compound, the ATP ([1]; metabolite ATP, S2 Table Metabolomics) was 0.1531, the CDP ([1]; metabolite CDP, S2 Table Metabolomics, change in metabolite level after compound treatment) was 0.2423 and the D-sedoheptulose-1/7-phosphate ([1]; metabolite D-sedoheptulose-1/7-phosphate, S2 Table Metabolomics, change in metabolite level after compound treatment) was 0.1783. The FAD ([1]; metabolite FAD, S2 Table Metabolomics) was 0.06654, the GMP ([1]; metabolite GMP, S2 Table Metabolomics, change in metabolite level after compound treatment) was -0.759 and the “NAD+” value ([1]; metabolite NAD+, S2 Table Metabolomics) was 0.08579. For the same compound, the “NADP+” value ([1]; metabolite NADP+, S2 Table Metabolomics) was 0.1944, the “Octoluse Bisphosphate” value ([1]; metabolite Octoluse Bisphosphate, S2 Table Metabolomics, change in metabolite level after compound treatment) was 0.5392 and the Pyroglutamic acid ([1]; metabolite Pyroglutamic acid, S2 Table Metabolomics) was -0.1569. For the same compound, the UDP-D-glucose ([1]; metabolite UDP-D-glucose, S2 Table Metabolomics) was 0.1671, the UDP-D-glucuronate ([1]; metabolite UDP-D-glucuronate, S2 Table Metabolomics) was 0.1875 and the UDP-N-acetyl-glucosamine ([1]; metabolite UDP-N-acetyl-glucosamine, S2 Table Metabolomics) was 0.2144. It also gave a UDP ([1]; metabolite UDP, S2 Table Metabolomics, change in metabolite level after compound treatment) of 0.1783, a UMP ([1]; metabolite UMP, S2 Table Metabolomics, change in metabolite level after compound treatment) of -0.6315 and a UTP ([1]; metabolite UTP, S2 Table Metabolomics, change in metabolite level after compound treatment) of 0.2956. The a-ketoglutarate ([1]; metabolite a-ketoglutarate, S2 Table Metabolomics) was -0.329, the citrate/isocitrate ([1]; metabolite citrate/isocitrate, S2 Table Metabolomics, change in metabolite level after compound treatment) was -0.5155 and the cytidine ([1]; metabolite cytidine, S2 Table Metabolomics) was -0.1275. For the same compound, the dATP ([1]; metabolite dATP, S2 Table Metabolomics) was 0.146, the dGMP/AMP ([1]; metabolite dGMP/AMP, S2 Table Metabolomics, change in metabolite level after compound treatment) was 0.3579 and the fumarate ([1]; metabolite fumarate, S2 Table Metabolomics, change in metabolite level after compound treatment) was -0.07198. For the same compound, the glucose-1/6-phosphate ([1]; metabolite glucose-1/6-phosphate, S2 Table Metabolomics, change in metabolite level after compound treatment) was -0.1463, the glycerate ([1]; metabolite glycerate, S2 Table Metabolomics, change in metabolite level after compound treatment) was 0.2881 and the guanine ([1]; metabolite guanine, S2 Table Metabolomics, change in metabolite level after compound treatment) was -0.1565. It also gave a guanosine ([1]; metabolite guanosine, S2 Table Metabolomics, change in metabolite level after compound treatment) of -0.3335, a hypoxanthine ([1]; metabolite hypoxanthine, S2 Table Metabolomics) of -0.2904 and an indole ([1]; metabolite indole, S2 Table Metabolomics) of -0.1941. The inosine ([1]; metabolite inosine, S2 Table Metabolomics, change in metabolite level after compound treatment) was -0.04044, the 2_3-Diphosphoglyceric acid [1, 2] was 0.5062 and the 4-phosphopantothenate [1, 2] was 0.1361. It also gave a 6-phospho-D-gluconate [1, 2] of 0.2552, an FMN [1, 2] of 0.1915 and an IMP [1, 2] of 0.3796. It also gave a Pyrophosphate [1, 2] of 0.2568, a Sedoheptoluse bisphosphate [1, 2] of 0.5745 and a cyclic-AMP [1, 2] of 0.1551. For the same compound, the glutathione disulfide [1, 2] was 0.2989, the lactate [1, 2] was -0.2145 and the myo-inositol [1, 2] was 0.9008. For the same compound, the nicotinate ([1]; metabolite nicotinate, S2 Table Metabolomics) was -0.1745, the ornithine ([1]; metabolite ornithine, S2 Table Metabolomics) was 0.1369 and the phosphoenolpyruvate ([1]; metabolite phosphoenolpyruvate, S2 Table Metabolomics) was 0.02242. For the same compound, the pyruvate ([1]; metabolite pyruvate, S2 Table Metabolomics, change in metabolite level after compound treatment) was -0.2103, the ribose-phosphate ([1]; metabolite ribose-phosphate, S2 Table Metabolomics) was -0.4062 and the sarcosine/alanine ([1]; metabolite sarcosine/alanine, S2 Table Metabolomics, change in metabolite level after compound treatment) was 0.2908. It also gave a sn-glycerol-3-phosphate ([1]; metabolite sn-glycerol-3-phosphate, S2 Table Metabolomics) of -0.1634, a succinate/methylmalonic acid ([1]; metabolite succinate/methylmalonic acid, S2 Table Metabolomics, change in metabolite level after compound treatment) of -0.1615 and a uridine ([1]; metabolite uridine, S2 Table Metabolomics, change in metabolite level after compound treatment) of -0.1737. The xanthosine ([1]; metabolite xanthosine, S2 Table Metabolomics, change in metabolite level after compound treatment) was -0.4685 and the EC50 (P. falciparum) was 72.6 nM.
